# Assay results taken from patent publication US20200255436A1, “CORTICOTROPIN RELEASING FACTOR RECEPTOR ANTAGONISTS” (Spruce Biosciences, Inc., priority 2019, published 2020).
# Read-outs that look alike come from different tables or passages of the source.
# How the values were obtained:
# [1] = Study 2 Part A: multiple-dose (14 days) pharmacokinetics; format: in vivo, human; conditions: for AUC(0-t): read-out: AUC0-24h; for Tmax: median; for concentration at 14 day: read-out: Cavg; for half-life: po, half-life calculated by accumulation ratio, read-out: Effective t1/2 (converted)
# Experimental: (§1) The 2-part multiple-dose study, Study 2, determined the safety and tolerability of repeated daily doses of Compound 1 and investigated the effects on biomarkers of relevance for the treatment of alcohol dependence.
# PK were also evaluated in the multiple-dose, dose-escalation study, Study 2. In Part A of the study, subjects were divided into 3 cohorts and received 50, 150, or 200 mg Compound 1 or placebo for 14 consecutive days (at least 6 subjects received Compound 1 and 2 subjects received placebo in each cohort). […] All dosing occurred in the fed state. An assessment of diurnal cortisol levels, plus when under conditions of glucose clamp, were also carried out both prior to and during the dosing period.
# Consistent with the single-dose study (Study 1), concentrations appeared to decline in a bi-exponential manner, characterized by a rapid decrease within the first 24 hours. […] The Tmax appeared to be consistent across doses. Overall half-lives, weight normalized CL/F and V/F were consistent for 150 and 200 mg. However, the values for these latter 2 parameters were almost doubled at the 50-mg dose level. Variability (CV%) for apparent clearance and volume of distribution were large and not reduced with weight-normalization.
# Table 8 presents the results of the dose proportionality assessment for the AUC0-24 and Cmax over the tested dose range.
# [2] = Phase 1 safety and tolerability (Study 1 and Study 2); format: in vivo, human; conditions: healthy subjects
# Source text: Study 1 was the first-in-human study that investigated the safety, tolerability, and PK of single-escalating doses of Compound 1, given orally, to healthy adult subjects. […] The data from this study were used for the selection of doses for Study 2.
# as §1
# The safety of Compound 1 was evaluated in 2 Phase 1 studies in healthy adult volunteers (Study 1 and Study 2). In both studies, adverse events (AEs), clinical laboratory tests, vital signs (supine blood pressure and pulse rate), and electrocardiograms (ECGs) were evaluated. Overall, in Study 1, Compound 1 was well-tolerated.
# [3] = Phase 2 study in adults with classic CAH: safety; format: in vivo, human; conditions: patients with CAH, 5-fold range of doses
# Source text: Cohort A of the Phase 2 Study includes a 6-week, multiple-dose, dose escalation study of Compound 1 for the treatment of adults with classic CAH. After screening, eligible patients will be enrolled into a 6-week treatment period followed by a 4-week washout/safety follow-up period.
# This cohort will be conducted in approximately 9 patients, who will receive Compound 1 daily for up to 6 weeks. Compound 1 will be administered as an oral daily dose. Patients will undergo titration of Compound 1 through three escalating dosage strengths at 2-week intervals. Patients will have overnight PK/PD assessments performed at baseline, which include an pre-dose overnight assessment and a post-dose overnight assessment for PK/PD following administration of the first dose. At the end of each 2-week dosing period, patients will return for single overnight visits for steady-state PK/PD assessments. A follow-up outpatient visit will occur 30 days after their last dose. Upon completion of the initial cohort (Cohort A), the study will proceed to a multiple ascending dose (MAD) design with up to 3 sequential cohorts (Cohorts B, C, and D) to further evaluate the safety, PK, and PD of various SPROO1 dosing regimens and to identify an optimal dose regimen. […]
# • 1. […] To assess the efficacy of Compound 1 in subjects with classic CAH as measured by percent and absolute change in 17-OHP compared to baseline.
# [4] = Solubility in different aqueous media; format: physicochemical; conditions: for solubility at 24 h: thermodynamic from solid
# [5] = human, plasma, oral, 50 mg, 50 mg daily, Day 14, geometric mean
# [6] = human, plasma, oral, 50 mg, Day 1, geometric mean
# [7] = human, plasma, oral, 150 mg, 150 mg daily, Day 14, geometric mean
# [8] = human, plasma, oral, 150 mg, Day 1, geometric mean
# [9] = human, plasma, oral, 200 mg, 200 mg daily, Day 14, geometric mean
# [10] = human, plasma, oral, 200 mg, Day 1, geometric mean
# [11] = human, plasma, oral, 50 mg daily, Day 14, geometric mean
# [12] = human, plasma, oral, 150 mg daily, Day 14, geometric mean
# [13] = human, plasma, oral, 200 mg daily, Day 14, geometric mean
smiles,measurement,setting,value
"CCC(CC)c1cc(C)nc2c(-c3sc(N4CCOCC4)nc3Cl)c(C)nn12 [Compound 1, 4-(4-chloro-5-(2,5-dimethyl-7-(pentan-3-yl)pyrazolo[1,5-a]pyrimidin-3-yl)thiazol-2-yl)morpholine]","RA (accumulation ratio, Day 14 AUC0-24/Day 1 AUC0-24)",[1]; 50 mg daily,2.80
same,CLaa/F,"[1]; 50 mg daily, Day 14, geometric mean",183 L/h
same,WT-norm Claa/F,"[1]; 50 mg daily, Day 14, weight normalized",2.88 L/h/kg
same,"RA (accumulation ratio, Day 14 AUC0-24/Day 1 AUC0-24)",[1]; 150 mg daily,2.51
same,CLaa/F,"[1]; 150 mg daily, Day 14, geometric mean",101 L/h
same,WT-norm Claa/F,"[1]; 150 mg daily, Day 14, weight normalized",1.42 L/h/kg
same,"RA (accumulation ratio, Day 14 AUC0-24/Day 1 AUC0-24)",[1]; 200 mg daily,3.65
same,CLaa/F,"[1]; 200 mg daily, Day 14, geometric mean",98 L/h
same,WT-norm Claa/F,"[1]; 200 mg daily, Day 14, weight normalized",1.50 L/h/kg
same,Cmax,[1]; [5],50.3 ng/mL
same,AUC(0-t),[1]; [5],273 ng·h/mL
same,Vd/F at 14 days,"[1]; human, plasma, oral, 50 mg, 50 mg daily, Day 14, geometric mean, read-out: Vss/F",12900 L
same,Tmax,"[1]; human, plasma, oral, 50 mg, 50 mg daily, Day 14",5 h
same,Vd/F at 14 days,"[1]; human, plasma, oral, 50 mg, 50 mg daily, Day 14, weight normalized, read-out: WT-norm Vss/F",204 L/kg
same,Cmax,[1]; [6],22.7 ng/mL
same,AUC(0-t),[1]; [6],97.6 ng·h/mL
same,Tmax,"[1]; human, plasma, oral, 50 mg, Day 1",4.52 h
same,Cmax,[1]; [7],222 ng/mL
same,AUC(0-t),[1]; [7],1480 ng·h/mL
same,Vd/F at 14 days,"[1]; human, plasma, oral, 150 mg, 150 mg daily, Day 14, geometric mean, read-out: Vss/F",6170 L
same,Vd/F at 14 days,"[1]; human, plasma, oral, 150 mg, 150 mg daily, Day 14, geometric mean, read-out: Vz/F",17600 L
same,Tmax,"[1]; human, plasma, oral, 150 mg, 150 mg daily, Day 14",5 h
same,Vd/F at 14 days,"[1]; human, plasma, oral, 150 mg, 150 mg daily, Day 14, weight normalized, read-out: WT-norm Vss/F",86.5 L/kg
same,Cmax,[1]; [8],127 ng/mL
same,AUC(0-t),[1]; [8],590 ng·h/mL
same,Tmax,"[1]; human, plasma, oral, 150 mg, Day 1",5 h
same,Cmax,[1]; [9],314 ng/mL
same,AUC(0-t),[1]; [9],2040 ng·h/mL
same,Vd/F at 14 days,"[1]; human, plasma, oral, 200 mg, 200 mg daily, Day 14, geometric mean, read-out: Vss/F",5080 L
same,Vd/F at 14 days,"[1]; human, plasma, oral, 200 mg, 200 mg daily, Day 14, geometric mean, read-out: Vz/F",16300 L
same,Tmax,"[1]; human, plasma, oral, 200 mg, 200 mg daily, Day 14",5 h
same,Vd/F at 14 days,"[1]; human, plasma, oral, 200 mg, 200 mg daily, Day 14, weight normalized, read-out: WT-norm Vss/F",77.4 L/kg
same,Cmax,[1]; [10],143 ng/mL
same,AUC(0-t),[1]; [10],559 ng·h/mL
same,Tmax,"[1]; human, plasma, oral, 200 mg, Day 1",5 h
same,AUC(0-inf),[1]; [11],980 ng·h/mL
same,concentration at 14 day,[1]; [11],11.4 ng/mL
same,AUC(0-inf),[1]; [12],4680 ng·h/mL
same,concentration at 14 day,[1]; [12],61.7 ng/mL
same,AUC(0-inf),[1]; [13],5660 ng·h/mL
same,concentration at 14 day,[1]; [13],85 ng/mL
same,half-life at 2 weeks,"[1]; human, plasma, oral, following multiple daily dosing for 2 weeks",> 4.17 days
same,half-life,"[1]; human, plasma, 50 mg daily, Day 14",2260 min
same,half-life,"[1]; human, plasma, 150 mg daily, Day 14",1960 min
same,half-life,"[1]; human, plasma, 200 mg daily, Day 14",3120 min
same,tolerability,"[2]; Study 1, single oral doses up to 800 mg",well-tolerated
same,tolerability,"[2]; Study 2, multiple doses up to 200 mg",generally well tolerated
same,tolerability,[3],generally well-tolerated
same,Description (solubility),"[4]; 0.001N HCl, equilibrium pH 3.36",Insoluble
same,Description (solubility),"[4]; 0.01N HCl, equilibrium pH 2.06",Insoluble
same,Description (solubility),"[4]; 0.1N HCl, equilibrium pH 1.06",insoluble
same,Description (solubility),"[4]; 0.1N NaOH, equilibrium pH 11.65",Insoluble
same,Description (solubility),"[4]; FaSSIF, equilibrium pH 5.16",insoluble
same,Description (solubility),"[4]; FaSSIF, equilibrium pH 6.73",Insoluble
same,Description (solubility),"[4]; SGF, equilibrium pH 2.25",Insoluble
same,Description (solubility),"[4]; Water, equilibrium pH 7.78",insoluble
same,solubility at 24 h,"[4]; aqueous buffer, 0.001N HCl, equilibrium pH 3.36, 24 hours at room temperature",0.3 µg/mL
same,solubility at 24 h,"[4]; aqueous buffer, 0.1N NaOH, equilibrium pH 11.65, 24 hours at room temperature",0.2 µg/mL
same,Description (solubility),"[4]; pH 4.5 Acetate (USP), equilibrium pH 4.65",Insoluble
same,solubility at 24 h,"[4]; pH 4.5 acetate buffer (USP), aqueous buffer, pH 4.5 Acetate (USP), equilibrium pH 4.65, 24 hours at room temperature",0.5 µg/mL
same,Description (solubility),"[4]; pH 6.0 Phosphate (USP), equilibrium pH 6.08",Insoluble
same,solubility at 24 h,"[4]; pH 6.0 phosphate buffer (USP), aqueous buffer, pH 6.0 Phosphate (USP), equilibrium pH 6.08, 24 hours at room temperature",0.2 µg/mL
same,Description (solubility),"[4]; pH 7.5 Phosphate (USP), equilibrium pH 7.57",Insoluble
same,solubility at 24 h,"[4]; pH 7.5 phosphate buffer (USP), aqueous buffer, pH 7.5 Phosphate (USP), equilibrium pH 7.57, 24 hours at room temperature",0.6 µg/mL
same,solubility at 24 h,"[4]; simulated gastric fluid, 0.01N HCl, equilibrium pH 2.06, 24 hours at room temperature",0.4 µg/mL
same,solubility at 24 h,"[4]; simulated gastric fluid, 0.1N HCl, equilibrium pH 1.06, 24 hours at room temperature",1.8 µg/mL
same,solubility at 24 h,"[4]; simulated gastric fluid, SGF, equilibrium pH 2.25, 24 hours at room temperature",20.4 µg/mL
same,solubility at 24 h,"[4]; FaSSIF, equilibrium pH 5.16, 24 hours at room temperature",10.4 µg/mL
same,solubility at 24 h,"[4]; FaSSIF, equilibrium pH 6.73, 24 hours at room temperature",3.6 µg/mL
same,solubility at 24 h,"[4]; Water, equilibrium pH 7.78, 24 hours at room temperature, n = 2",0.3 µg/mL
